For 36 molecules, EC50 results are on record in patent US20220226298A1, “GPR40 AGONISTS” (Kallyope, Inc., priority 2019, published 2022).

A value given as a limit tells only on which side of the number the result lay.

The target of this experiment is T1, human GPR40 (Homo sapiens, UniProt O14842).
T1 construct: host or cells: CHO-K1
Put plainly: Inositol phosphate accumulation assay (IP1 HTRF) in CHO-K1 cells expressing human GPR40. It is filed as cell-based. As to conditions: 90 min stimulation. The procedure: CHO-KI cells expressing human GPR40 were purchased from DiscoverX (95-1005C2). HEK293 cells expressing mouse FFAR1 were prepared using a mouse FFAR1 carrying plasmid purchased from OriGene Technologies (MR222997). The cells were transfected using Lipofectamine 2000 using manufacturer instructions and stable cell line was established from a single cell using geneticine selection. Assay ready frozen (ARF) cells were prepared and used throughout the study.
The assay was performed in a 384-well plate format using IP1 assay kit from Cis-Bio. ARF cells expressing FFAR1 (mouse and human) were thawed, washed and then plated in the appropriate medium (F12 based medium for CHO hFFAR1 and DMEM based medium for HEK293 mFFAR1—both were supplemented with 10% FBS and penicillin/streptomycin). 20 μL of 3.5×10^5 cells/mL were plated on a Poly D-Lysine coated 384-well white plate. The cells were then incubated for 16 hr at 37° C./5% CO2. After 16 hr the medium was removed and 15 μL of stimulation buffer containing the test compounds was added to the cells. The plates were then incubated for 90 min at 37° C./5% CO2. 5 μL of detection buffer (prepared as described in the IP-one kit) was added to each well and the plates were incubated at RT for 1 hr.
[…] was measured using ClarioSTAR plate reader, calculating the ratio between emissions at 665 nm and 620 nm (HTRF ratio). HTRF ratio for positive (Max) and negative (Min) controls were used to normalize HTRF data and generate values for % activity. EC50 and Max activity values were determined using a standard 4-parameter fit.

T1 sequence (O14842 whole entry): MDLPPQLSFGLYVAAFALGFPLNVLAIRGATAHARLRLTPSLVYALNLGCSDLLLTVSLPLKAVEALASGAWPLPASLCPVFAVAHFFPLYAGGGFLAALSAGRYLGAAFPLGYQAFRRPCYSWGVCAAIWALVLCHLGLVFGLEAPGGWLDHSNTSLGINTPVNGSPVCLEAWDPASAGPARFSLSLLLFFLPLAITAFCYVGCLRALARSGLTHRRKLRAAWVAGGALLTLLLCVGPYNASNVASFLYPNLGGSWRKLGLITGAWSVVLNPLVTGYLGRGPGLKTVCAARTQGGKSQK

`Cc1cc(-c2cc(O)ncc2F)c(CN(C(C)C)C(C)C)cc1C(=O)Oc1cccc([C@H](C2CC2)[C@@](C)(F)C(=O)O)c1` [Compound 64, (2R,3S)-3-cyclopropyl-3-(3-((5-((diisopropylamino)methyl)-4-(5-fluoro-2-hydroxypyridin-4-yl)-2-methylbenzoyl)oxy)phenyl)-2-fluoro-2-methylpropanoic acid] yielded an EC50 of more than 500 nM.

In the case of `COc1cc(-c2ccc(C(=O)Oc3cccc([C@H](C4CC4)[C@H](C)C(=O)O)c3)c(C)c2)c(F)cn1` [Compound 14], the EC50 is not above 10 nM.

Molecule `COc1cc(-c2cc(F)c(C(=O)Oc3cccc([C@H](C4CC4)[C@H](C)C(=O)O)c3)cc2CN(C(C)C)C(C)C)ccn1` [Compound 24] came in with an EC50 not above 10 nM.

For `COc1cc(-c2ccc(C(=O)Oc3cccc([C@H](C4CC4)[C@H](C)C(=O)O)c3)cc2CN(C[C@H](O)[C@@H](O)[C@H](O)[C@H](O)CO)C(C)C)c(F)cn1` [Compound 35, (2S,3R)-3-cyclopropyl-3-(3-((4-(5-fluoro-2-methoxypyridin-4-yl)-3-((isopropyl((2S,3R,4R,5R)-2,3,4,5,6-pentahydroxyhexyl)amino)methyl)benzoyl)oxy)phenyl)-2-methylpropanoic acid], the EC50 is more than 500 nM.

For `COc1ccc(F)c(-c2ccc(C(=O)Oc3cccc([C@@H](CC(=O)O)C4CC4)c3)c(C)c2)c1` [Compound 6], the EC50 lay within 10 to 100 nM.

Take `COc1ccc(F)c(-c2cc(C(=O)Oc3cccc([C@@H](CC(=O)O)C4CC4)c3)on2)c1` [Compound 7, (S)-3-cyclopropyl-3-(3-((3-(2-fluoro-5-methoxyphenyl)isoxazole-5-carbonyl)oxy)phenyl)propanoic acid]: the EC50 is more than 500 nM.

In turn, `COc1cc(-c2ccc(C(=O)Oc3cccc(C(CP(C)(=O)O)C4CC4)c3)cc2CN(C(C)C)C(C)C)c(F)cn1` (stereo not drawn) [Compound 66, (2-cyclopropyl-2-(3-((3-((diisopropylamino)methyl)-4-(5-fluoro-2-methoxypyridin-4-yl)benzoyl)oxy)phenyl)ethyl)(methyl)phosphinic acid] displayed an EC50 of more than 500 nM.

For the molecule `COc1cc(-c2cc(C)c(OC(=O)c3cccc([C@H](C4CC4)[C@H](C)C(=O)O)c3)cc2CN(C(C)C)C(C)C)c(F)cn1` [Compound 61], the EC50 is not above 10 nM.

`COc1cc(-c2ccc(C(=O)Oc3cccc([C@H](C4CC4)[C@H](C)C(=O)O)c3)c(C)c2)c(C(=O)NCCO)cn1` [Compound 51] came in with an EC50 of more than 500 nM.

Take `CC(c1cc(C(F)(F)F)ccc1C(F)(F)F)N1CCN(C(=O)Oc2cccc([C@@H](CC(=O)O)C3CC3)c2)CC1` (stereo partly drawn) [Compound 20, (3S)-3-(3-((4-(1-(2,5-bis(trifluoromethyl)phenyl)ethyl)piperazine-1-carbonyl)oxy)phenyl)-3-cyclopropylpropanoic acid]: the EC50 lay within 10 to 100 nM.

`COC(=O)c1cnc(OC)cc1-c1ccc(C(=O)Oc2cccc([C@H](C3CC3)[C@H](C)C(=O)O)c2)cc1CN(C(C)C)C(C)C` [Compound 53] came in with an EC50 not above 10 nM.

Consider `O=C(O)C[C@H](c1cccc(C(=O)Oc2ccc(-c3cc(O)ccc3F)cc2)c1)C1CC1` [Compound 43], for which the EC50 is 100 to 500 nM.

For the molecule `COc1cc(-c2cc(C)c(C(=O)Oc3cccc([C@H](C4CC4)[C@H](C)C(=O)O)c3)cc2CN(C(C)C)C(C)C)c(F)cn1` [Compound 21, (2S,3R)-3-cyclopropyl-3-(3-((5-((diisopropylamino)methyl)-4-(5-fluoro-2-methoxypyridin-4-yl)-2-methylbenzoyl)oxy)phenyl)-2-methylpropanoic acid], the EC50 is not above 10 nM.

`COc1ccc(F)c([C@H]2CC[C@H](C(=O)Oc3cccc([C@H](C4CC4)[C@@](C)(F)C(=O)O)c3)CC2)c1` [Compound 62] had an EC50 not above 10 nM.

Regarding `COc1ccc(F)c(-c2ccc(OC(=O)c3cccc([C@@H](CC(=O)O)C4CC4)c3)c(C)c2)c1` [Compound 45, (S)-3-cyclopropyl-3-(3-(((2′-fluoro-5′-methoxy-3-methyl-[1,1′-biphenyl]-4-yl)oxy)carbonyl)phenyl)propanoic acid], the EC50 was in the range of 100 to 500 nM.

With `COc1cc(-c2ccc(C(=O)Oc3cccc([C@H](C4CC4)[C@H](C)C(=O)O)c3F)cc2CN(C(C)C)C(C)C)c(F)cn1` [Compound 69, (2S,3R)-3-cyclopropyl-3-[3-[3-[(diisopropylamino)methyl]-4-(5-fluoro-2-methoxy-4-pyridyl)benzoyl]oxy-2-fluoro-phenyl]-2-methyl-propanoic acid], the EC50 was not above 10 nM.

Molecule `COc1cc(-c2cc(C)c(C(=O)Oc3cccc(C(CP(C)(=O)O)C4CC4)c3)cc2CN(C(C)C)C(C)C)c(F)cn1` (stereo not drawn) [Compound 70, (2-cyclopropyl-2-(3-((5-((diisopropylamino)methyl)-4-(5-fluoro-2-methoxypyridin-4-yl)-2-methylbenzoyl)oxy)phenyl)ethyl)(methyl)phosphinic acid] came in with an EC50 of more than 500 nM.

Molecule `COc1cc(-c2ccc(C(=O)Oc3cccc([C@@H](CC(=O)O)C4CC4)c3)c(F)c2)ccn1` [Compound 17] returned an EC50 of 100 to 500 nM.

With `COc1cc(-c2cc(C)c(C(=O)Oc3cccc([C@@H](CC(=O)O)C4CC4)c3)cc2CN(C(C)C)C(C)C)c(F)cn1` [Compound 19], the EC50 lay in the range of 10 to 100 nM.

The molecule `COc1cc(-c2cc(C)c(C(=O)Oc3cccc([C@@H](CC(=O)O)C4CC4)c3)c(F)c2)ccn1` [Compound 18] came in with an EC50 of 100 to 500 nM.

As to `COc1cc(-c2cnc(C(=O)Oc3cccc([C@@H](CC(=O)O)C4CC4)c3)cn2)c(F)cn1` [Compound 23], the EC50 was more than 500 nM.

In turn, `O=C(O)C[C@H](c1cccc(C(=O)O)c1)C1CC1` [Compound 42] registered an EC50 of more than 500 nM.

As for `CC(c1cc(C(F)(F)F)ccc1C(F)(F)F)N1CCC(OC(=O)c2cccc([C@@H](CC(=O)O)C3CC3)c2)CC1` (stereo partly drawn) [Compound 46, (3S)-3-(3-(((1-(1-(2,5-bis(trifluoromethyl)phenyl)ethyl)piperidin-4-yl)oxy)carbonyl)phenyl)-3-cyclopropylpropanoic acid], the EC50 is more than 500 nM.

Turning to `CC(c1cc(C(F)(F)F)ccc1C(F)(F)F)N1CCC(C(=O)Oc2cccc([C@@H](CC(=O)O)C3CC3)c2)C1` (stereo partly drawn) [Compound 8, (3S)-3-(3-((1-(1-(2,5-bis(trifluoromethyl)phenyl)ethyl)pyrrolidine-3-carbonyl)oxy)phenyl)-3-cyclopropylpropanoic acid], the EC50 is 10 to 100 nM.

Molecule `COc1cc(-c2ccc(C(=O)Oc3cccc([C@H](C4CC4)[C@H](C)C(=O)O)c3)cc2CN2CCCC2(C)C)c(F)cn1` [Compound 32] displayed an EC50 not above 10 nM.

In the case of `CCN(Cc1cc(C(=O)Oc2cccc([C@H](C3CC3)[C@H](C)C(=O)O)c2)ccc1-c1cc(OC)ncc1F)C(C)C` [Compound 34, (2S,3R)-3-cyclopropyl-3-(3-((3-((ethyl(isopropyl)amino)methyl)-4-(5-fluoro-2-methoxypyridin-4-yl)benzoyl)oxy)phenyl)-2-methylpropanoic acid], the EC50 was not above 10 nM.

As for `COc1cc(-c2cc(F)c(C(=O)Oc3cccc([C@@H](CC(=O)O)C4CC4)c3)cc2CN(C(C)C)C(C)C)ccn1` [Compound 16, (S)-3-cyclopropyl-3-(3-((5-((diisopropylamino)methyl)-2-fluoro-4-(2-methoxypyridin-4-yl)benzoyl)oxy)phenyl)propanoic acid], the EC50 was not above 10 nM.

As to `COc1cc(-c2ccc(OC(=O)c3cccc([C@H](C4CC4)[C@H](C)C(=O)O)c3)c(C)c2)c(F)cn1` [Compound 56], the EC50 was not above 10 nM.

Regarding `COc1cc(-c2ccc(C(=O)Oc3cccc([C@@H](CC(=O)O)C4CC4)c3)c(C)c2)c(F)cn1` [Compound 10, (S)-3-cyclopropyl-3-(3-((4-(5-fluoro-2-methoxypyridin-4-yl)-2-methylbenzoyl)oxy)phenyl)propanoic acid], the EC50 was 100 to 500 nM.

Turning to `COc1ccc(C(=O)N(CC(C)(C)C)c2cccc(C)n2)c(-c2ccc(C(=O)Oc3cccc([C@H](C4CC4)[C@H](C)C(=O)O)c3)c(C)c2)c1` [Compound 31, (2S,3R)-3-cyclopropyl-3-(3-((5′-methoxy-3-methyl-2′-((6-methylpyridin-2-yl)(neopentyl)carbamoyl)-[1,1′-biphenyl]-4-carbonyl)oxy)phenyl)-2-methylpropanoic acid], the EC50 is not above 10 nM.

`COc1cc(-c2ccc(C(=O)Oc3cccc([C@H](C4CC4)[C@H](C)C(=O)O)c3)c(C)c2)c(C(=O)N(CCO)CCO)cn1` [Compound 52] displayed an EC50 of more than 500 nM.

With `CCN(Cc1cc(OC(=O)c2cccc([C@H](C3CC3)[C@H](C)C(=O)O)c2)ccc1-c1cc(OC)ncc1F)C(C)C` [Compound 57], the EC50 was not above 10 nM.

Molecule `COc1cc(-c2ccc(OC(=O)c3cccc([C@H](C4CC4)[C@H](C)C(=O)O)c3)cc2CN(C(C)C)C(C)C)c(F)cn1` [Compound 58] yielded an EC50 not above 10 nM.

Regarding `COc1cc(-c2ccc(C(=O)Oc3cccc([C@H](C4CC4)[C@H](C)C(=O)O)c3)cc2)ccn1` [Compound 27], the EC50 is not above 10 nM.

Molecule `COc1cc(-c2ccc(OC(=O)c3cccc([C@H](C4CC4)[C@H](C)C(=O)O)c3)c(CN(C(C)C)C(C)C)c2)c(F)cn1` [Compound 55] gave an EC50 not above 10 nM.

In turn, `CC(c1cc(C(F)(F)F)ccc1C(F)(F)F)N1CCC(C(=O)Oc2cccc([C@@H](CC(=O)O)C3CC3)c2)CC1` (stereo partly drawn) [Compound 9] registered an EC50 of 10 to 100 nM.
